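Grown in 96-well plates, cells were treated for 48 hours with each compound at five concentrations. Insufficient inhibition: endpoint recorded as highest concentration tested. Abbreviation: GI50, concentration required for 50% inhibition of growth. TGI: total growth inhibition.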
What was measured:
Assay in all cases: growth of human tumour cells (NCI), 48 h
786-0 renal = test system: 786-0 renal
A498 renal = test system: A498 renal
A549 NSCLC = test system: A549 NSCLC
ACHN renal = test system: ACHN renal
BT-549 breast = test system: BT-549 breast
CAKI-1 renal = test system: CAKI-1 renal
CCRF-CEM leukemia = test system: CCRF-CEM leukemia
COLO 205 colon = test system: COLO 205 colon
DU-145 prostate = test system: DU-145 prostate
EKVX NSCLC = test system: EKVX NSCLC
HCC-2998 colon = test system: HCC-2998 colon
HCT-116 colon = test system: HCT-116 colon
HCT-15 colon = test system: HCT-15 colon
HL-60(TB) leukemia = test system: HL-60(TB) leukemia
HOP-62 NSCLC = test system: HOP-62 NSCLC
HOP-92 NSCLC = test system: HOP-92 NSCLC
HS 578T breast = test system: HS 578T breast
HT29 colon = test system: HT29 colon
IGROV1 ovarian = test system: IGROV1 ovarian
K-562 leukemia = test system: K-562 leukemia
KM12 colon = test system: KM12 colon
LOX IMVI melanoma = test system: LOX IMVI melanoma
M14 melanoma = test system: M14 melanoma
MALME-3M melanoma = test system: MALME-3M melanoma
MCF7 breast = test system: MCF7 breast
MDA-MB-231 breast = test system: MDA-MB-231 breast
MDA-MB-435 = test system: MDA-MB-435
MOLT-4 leukemia = test system: MOLT-4 leukemia
NCI-H226 lung = test system: NCI-H226 lung
NCI-H23 lung = test system: NCI-H23 lung
NCI-H460 lung = test system: NCI-H460 lung
NCI-H522 lung = test system: NCI-H522 lung
NCI/ADR-RES ovarian = test system: NCI/ADR-RES ovarian
OVCAR-3 ovarian = test system: OVCAR-3 ovarian
OVCAR-4 ovarian = test system: OVCAR-4 ovarian
OVCAR-5 ovarian = test system: OVCAR-5 ovarian
OVCAR-8 ovarian = test system: OVCAR-8 ovarian
PC-3 prostate = test system: PC-3 prostate
RPMI-8226 leukemia = test system: RPMI-8226 leukemia
RXF 393 renal = test system: RXF 393 renal
SF-268 CNS = test system: SF-268 CNS
SF-295 CNS = test system: SF-295 CNS
SF-539 CNS = test system: SF-539 CNS
SK-MEL-2 melanoma = test system: SK-MEL-2 melanoma
SK-MEL-28 melanoma = test system: SK-MEL-28 melanoma
SK-OV-3 ovarian = test system: SK-OV-3 ovarian
SN12C renal = test system: SN12C renal
SNB-19 CNS = test system: SNB-19 CNS
SNB-75 CNS = test system: SNB-75 CNS
SW-620 colon = test system: SW-620 colon
T-47D breast = test system: T-47D breast
TK-10 renal = test system: TK-10 renal
U251 CNS = test system: U251 CNS
UACC-257 melanoma = test system: UACC-257 melanoma
UACC-62 melanoma = test system: UACC-62 melanoma
UO-31 renal = test system: UO-31 renal

COc1ccc(-c2nc(S(=O)(=O)c3ccccc3)c(S(=O)CC(=O)N3CCC(C)CC3)o2)cc1 (configuration not stated)
GI50 (786-0 renal): 1.92 µM
TGI (786-0 renal): 4.05 µM
GI50 (A498 renal): 2.46 µM
TGI (A498 renal): 9.79 µM
GI50 (A549 NSCLC): 7.59 µM
TGI (A549 NSCLC): 21.1 µM
GI50 (ACHN renal): 1.68 µM
TGI (ACHN renal): 3.13 µM
GI50 (BT-549 breast): 1.73 µM
TGI (BT-549 breast): 3.77 µM
GI50 (CAKI-1 renal): 2.28 µM
TGI (CAKI-1 renal): 6.7 µM
GI50 (CCRF-CEM leukemia): 2.82 µM
TGI (CCRF-CEM leukemia): 8.63 µM
GI50 (COLO 205 colon): 2.04 µM
TGI (COLO 205 colon): 3.86 µM
GI50 (DU-145 prostate): 1.37 µM
TGI (DU-145 prostate): 2.72 µM
GI50 (EKVX NSCLC): 3.69 µM
TGI (EKVX NSCLC): 13.7 µM
GI50 (HCC-2998 colon): 14 µM
TGI (HCC-2998 colon): 28.8 µM
GI50 (HCT-116 colon): 1.72 µM
TGI (HCT-116 colon): 3.2 µM
GI50 (HCT-15 colon): 1.27 µM
TGI (HCT-15 colon): 2.86 µM
GI50 (HL-60(TB) leukemia): 1.61 µM
TGI (HL-60(TB) leukemia): 8.35 µM
GI50 (HOP-62 NSCLC): 8.12 µM
TGI (HOP-62 NSCLC): 21 µM
GI50 (HOP-92 NSCLC): 1.62 µM
TGI (HOP-92 NSCLC): 3.63 µM
GI50 (HS 578T breast): 5.86 µM
TGI (HS 578T breast): 27 µM
GI50 (HT29 colon): 2.58 µM
TGI (HT29 colon): 10.1 µM
GI50 (IGROV1 ovarian): 2.17 µM
TGI (IGROV1 ovarian): 6.27 µM
GI50 (K-562 leukemia): 0.198 µM
TGI (K-562 leukemia): 3.03 µM
GI50 (KM12 colon): 4.72 µM
TGI (KM12 colon): 16.7 µM
GI50 (LOX IMVI melanoma): 1.72 µM
TGI (LOX IMVI melanoma): 3.25 µM
GI50 (M14 melanoma): 1.89 µM
TGI (M14 melanoma): 4.21 µM
GI50 (MALME-3M melanoma): 1.94 µM
TGI (MALME-3M melanoma): 3.67 µM
GI50 (MCF7 breast): 1.45 µM
TGI (MCF7 breast): 3.44 µM
GI50 (MDA-MB-231 breast): 1.91 µM
TGI (MDA-MB-231 breast): 4.08 µM
GI50 (MDA-MB-435): 2.55 µM
TGI (MDA-MB-435): 6.56 µM
GI50 (MOLT-4 leukemia): 2.09 µM
TGI (MOLT-4 leukemia): 5.71 µM
GI50 (NCI-H226 lung): 2.37 µM
TGI (NCI-H226 lung): 6.25 µM
GI50 (NCI-H23 lung): 3.12 µM
TGI (NCI-H23 lung): 12.1 µM
GI50 (NCI-H460 lung): 5.95 µM
TGI (NCI-H460 lung): 20.6 µM
GI50 (NCI-H522 lung): 1.44 µM
TGI (NCI-H522 lung): 3.39 µM
GI50 (NCI/ADR-RES ovarian): 3.1 µM
TGI (NCI/ADR-RES ovarian): 12 µM
GI50 (OVCAR-3 ovarian): 1.33 µM
TGI (OVCAR-3 ovarian): 2.74 µM
GI50 (OVCAR-4 ovarian): 3.31 µM
TGI (OVCAR-4 ovarian): 13 µM
GI50 (OVCAR-5 ovarian): 2.99 µM
TGI (OVCAR-5 ovarian): 8.58 µM
GI50 (OVCAR-8 ovarian): 2.44 µM
TGI (OVCAR-8 ovarian): 6.59 µM
GI50 (PC-3 prostate): 3.55 µM
TGI (PC-3 prostate): 15.7 µM
GI50 (RPMI-8226 leukemia): 1.25 µM
TGI (RPMI-8226 leukemia): 4.02 µM
GI50 (RXF 393 renal): 1.68 µM
TGI (RXF 393 renal): 3.25 µM
GI50 (SF-268 CNS): 3.78 µM
TGI (SF-268 CNS): 14.9 µM
GI50 (SF-295 CNS): 6.44 µM
TGI (SF-295 CNS): 19.4 µM
GI50 (SF-539 CNS): 1.8 µM
TGI (SF-539 CNS): 3.52 µM
GI50 (SK-MEL-2 melanoma): 3.19 µM
TGI (SK-MEL-2 melanoma): 9.83 µM
GI50 (SK-MEL-28 melanoma): 2.15 µM
TGI (SK-MEL-28 melanoma): 4.36 µM
GI50 (SK-OV-3 ovarian): 12.9 µM
TGI (SK-OV-3 ovarian): 26.5 µM
GI50 (SN12C renal): 1.9 µM
TGI (SN12C renal): 3.6 µM
GI50 (SNB-19 CNS): 6.43 µM
TGI (SNB-19 CNS): 19.1 µM
GI50 (SNB-75 CNS): 4.16 µM
TGI (SNB-75 CNS): 15.2 µM
GI50 (SW-620 colon): 1.73 µM
TGI (SW-620 colon): 4.36 µM
GI50 (T-47D breast): 1.71 µM
TGI (T-47D breast): 4.09 µM
GI50 (TK-10 renal): 1.91 µM
TGI (TK-10 renal): 3.85 µM
GI50 (U251 CNS): 3.06 µM
TGI (U251 CNS): 10.6 µM
GI50 (UACC-257 melanoma): 2.1 µM
TGI (UACC-257 melanoma): 5.05 µM
GI50 (UACC-62 melanoma): 1.67 µM
TGI (UACC-62 melanoma): 3.6 µM
GI50 (UO-31 renal): 1.26 µM
TGI (UO-31 renal): 2.57 µM
